Source: paper PMC10557233, “Controlled release of Clenbuterol from a hydroxyapatite carrier for the treatment of Alzheimer’s Disease” (Biomaterials Research, 2023)
Like-named read-outs stand apart in the source and are kept apart here.

Legend:
L929 cell line = assay: Biocompatibility by WST-1 assay (ISO 10993); type: cell-based
Procedure: The extracted supernatants were collected for subsequent experiments. Zinc diethyldithiocarbamate was used as a positive control and aluminum oxide was used as a negative control. After adding the WST-1 solution to the wells, the plate was incubated for 2 h, and the absorbance of each well was measured at 450 nm using a spectrophotometric plate reader (ELISA reader, Tecan Sunrise, Switzerland). The percentage of viable cells was calculated using the following equation:
Cell viability (%) = ((OD experiment - OD background) ×100)/ ((OD control - OD background))…(2).

N2a cell line = assay: N2a cell viability versus concentration (IC50); type: cell-based; conditions: Mus musculus; N2a cells; called predicted IC50; read-out: IC50 (concentration at which 50% cell survival was observed)
Aβ42 peptides = biological target: T1, Aβ42 peptides (Homo sapiens, UniProt P05067); assay: Thioflavin T fluorescence assay and TEM of Aβ aggregation; type: biochemical
T1 construct: Aβ42 peptides were obtained from Peptide Institute, Inc; purchased Peptide Institute, Inc. (ASIA BIOSCIENCE Co., Ltd., Taiwan)
Procedure: Aβ42 peptides were obtained from Peptide Institute, Inc. (ASIA BIOSCIENCE Co., Ltd., Taiwan) and dissolved in hexafluoro-2-propanol (HFIP; Oakwood Products, Estill, SC, USA) to a final concentration of 1 mM for monomerization. The resulting solution was stored at − 80 °C. The monomerized peptides were resuspended in anhydrous DMSO (catalog number D-2650, Sigma) and diluted to a concentration of 100 µM using Dulbecco’s modified Eagle’s medium (DMEM, Sigma) before use. Aβ fibrils were formed by shaking the solution at 37 °C for 3 days. The morphology of the fibrils, with or without CLB incubation for 3 days, was observed using transmission electron microscopy (TEM). Samples were incubated with 1% uranyl acetate for 1 min before TEM.
The progression of amyloid β aggregation was tracked using thioflavin T (ThT), a fluorescent dye originally used to stain amyloid fibrils in histological samples. […] ThT fluorescence was measured at 25 °C using a spectrophotometric plate reader (ELISA reader, Tecan Sunrise, Switzerland) with an excitation filter at 450 nm and an emission filter at 482 nm, the computation of intensity was performed through the utilization of SoftMax Pro 7.0 software (Molecular Devices, CA, USA). After ThT binds to β-sheet aggregate structures, such as amyloid fibrils, its fluorescence emission changes, allowing the monitoring of amyloid β aggregation.

BV-2 microglial cells = assay: Western blot analysis of LPS-induced inflammation; type: cell-based
Procedure: LPS (L2880, Sigma) was dissolved in normal saline before injection. BV2 cells were seeded in 6-well plates at a density of 10^5 cells/well and cultured for 1 day to allow full adhesion. […] Subsequently, LPS (1 µg/mL) was added to induce inflammation for 24 h. The medium was then removed and the BV2 cells were washed three times with PBS. The cells were then lysed in 100 µL of ice-cold radioimmunoprecipitation assay buffer, and protein concentrations were quantified using the Bio-Rad protein assay. Equal amounts of proteins were electrophoresed on a 10% sodium dodecyl sulfate-polyacrylamide gel. The separated proteins were transferred onto nitrocellulose membranes and incubated with primary monoclonal mouse antibodies (BIOTOOLS Co., Ltd., Taipei, Taiwan) against IL-6 (1:1000), IL-1β (1:1000), TNF-α (1:1000), and β-actin (1:5000) overnight at 4 °C. Following incubation with the appropriate secondary antibody, the signals were analyzed using an imaging system (Bio-Rad).

[1] = tested on: rats with AlCl3-induced AD; assay: Morris water maze test in rats with AlCl3-induced AD; type: in vivo, SD rats; conditions: 6 mg/kg intramuscular weekly, 8 weeks
Procedure: (§1) The study used 60 male SD rats (BioLASCO, Taiwan; average age, 8 weeks). The study was approved by the Institutional Animal Care and Use Committee (No. 20,190,497) of National Taiwan University. CLB.HCl (Sigma-Aldrich C5423; Lot# BCBQ2163V) powder was stored at 4 °C and diluted in sterile 0.9% saline to a concentration of 20 µM based on the free base before injection. AlCl3 (7446-70-0, Sigma-Aldrich) was dissolved in normal saline before injection, and 70 mg/kg body weight of AlCl3 was administered intraperitoneally (i.p.) three times weekly for 8 weeks as previously described. […] After 8 weeks, several animal behavioral tests, histological staining, pharmacokinetics, and biochemical analyses were performed.
This study used a circular pool partitioned into four quadrants, one of which contained an underwater platform. […] After four training sessions, the time taken by the rats to reach the escape platform was measured using EthoVision software (Noldus Information Technology, Wageningen, Netherlands). […] To evaluate spatial memory, the time taken by each rat to reach the platform from the starting position was recorded. On the contrary, working memory was assessed by determining the amount of time spent by the rat in the same quadrant (up to 120 s) but without a platform. The time spent in the quadrant without a platform was also recorded.

[2] = Plasma pharmacokinetics of CLB by LC-MS/MS after intramuscular administration; type: in vivo, SD rats
Procedure: as §1
LC-MS/MS was used to perform quantitative analysis using an LCMS8030 system (Shimadzu, Japan). We used the multiple reaction monitoring mode for mass spectrometric analysis, and the MS/MS parameters were optimized by flow injection analysis. Plasma samples were prepared using simple protein precipitation in methanol. The specificity of the method was tested by analyzing blank rat plasma, blank rat plasma spiked with clenbuterol-d9 (internal standard, IS), and plasma samples collected after CLB administration. A Thermo Hypersil Gold aQ C18 column (50 mm × 2.1 mm) with a particle size of 1.9 μm was used for separation. The mobile phase gradient consisted of (A) 2% methanol in pure water + 0.1% formic acid, and (B) methanol with 0.1% formic acid. The gradient elution was as follows: 30% B (0 min), 30% B (0.5 min), 98% B (2.5 min), 98% B (3.5 min), 30% B (4 min), and 30% B (5.5 min) at a flow rate of 300 µL/min, with a total run time of […]. A calibration curve was constructed using the plasma concentration of the quality control (QC) sample and the peak area ratio (y) of the QC sample to the IS. The linear calibration curves of CLB ranged from 0.5 to 200 ng/mL, with correlation coefficients over 0.99952. The injection volume of the final solution was 20 µL for the serum specimens. To evaluate the accuracy, precision, and extraction recovery of the assay, three sequential assays were performed with six replicates of QC samples (5, 50, and 500 ng/mL CLB) for each assay. QC samples were prepared from normal blank rat plasma at concentrations of 0.5, 2, 5, 20, 50, 200, and 500 ng/mL of CLB. The concentrations of the QC samples were calculated based on the calibration curve and compared with those of the control samples with the same concentration. For the brain sample homogenization procedures, a brain sample and an equivalent weight of 25% plasma solution were mixed in a 50 mL centrifuge tube and homogenized completely at 30,000 rpm on ice. The resulting homogenized solution was centrifuged and the supernatant was collected as a test sample. The test sample was filtered through a 0.2 μm GHP filter, and 200 µL of the sample mixture was transferred into a new 96-well 1 mL round collection plate and sealed. Finally, the samples were placed in an autosampler to be injected.

[3] = Drug content in brain tissues by LC/MS/MS; type: in vivo, SD rats; conditions: male, SD, 6 mg/kg; rat brain homogenate, intramuscular injection; read-out: Concentration in brain tissues 24 h after injection
Procedure: as §1
LC-MS/MS was used to perform quantitative analysis using an LCMS8030 system (Shimadzu, Japan). We used the multiple reaction monitoring mode for mass spectrometric analysis, and the MS/MS parameters were optimized by flow injection analysis. Plasma samples were prepared using simple protein precipitation in methanol. The specificity of the method was tested by analyzing blank rat plasma, blank rat plasma spiked with clenbuterol-d9 (internal standard, IS), and plasma samples collected after CLB administration. […] The concentrations of the QC samples were calculated based on the calibration curve and compared with those of the control samples with the same concentration. […]

[4] = tested on: rats with AlCl3-induced AD; assay: Western blot of brain tissue for synapsin-1, synaptophysin, BACE1 and TNF-α; type: in vivo, SD rats; conditions: compared with the AD group
Procedure: as §1

[5] = male, SD, im, rat plasma, 6 mg/kg intramuscular

T1 sequence (P05067 672-713 limits assumed): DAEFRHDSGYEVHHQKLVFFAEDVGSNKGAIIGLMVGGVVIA

| Molecule | cell viability / cytotoxicity (L929 cell line; L929 cells, day 3, WST-1, extract medium) | IC50 (N2a cell line) | effect on Aβ aggregates (ThT fluorescence) (Aβ42 peptides; 10 µM Aβ incubated with 20 µM CLB) | effect on Aβ fibrils (TEM) (Aβ42 peptides; Aβ and CLB co-incubated for 3 days) | protein expression levels of IL-1β, IL-6, and TNF-α (BV-2 microglial cells; LPS-induced BV-2 cells, western blot) | secretion of IL-1β, IL-6, and TNF-α (BV-2 microglial cells; LPS-stimulated BV-2 cells, 20 µM, vs LPS-treated control cells) | time to locate the escape platform (MWM) [1] | half-life ([2]; SD, rat, plasma, intramuscular, 6 mg/kg, rats) | AUC(0-inf) [2, 5] | Tmax [2, 5] | AUC(0-t) ([2]; male, SD, im, rat plasma, 6 mg/kg intramuscular, 0.5-168 hr) | Cmax ([2]; male, SD, rat, plasma, im, 6 mg/kg, rat plasma, 6 mg/kg intramuscular, read-out: Cmax) | Cmax ([2]; rat plasma, 6 mg/kg intramuscular, 6 mg/kg) | accumulation after multiple-dose administration ([2]; rats, repeated intramuscular dosing) | concentration at 24 h [3] | expression of synapsin-1 and synaptophysin in hippocampus [4] | cell viability / cytotoxicity (L929 cell line) |
| --- | --- | --- | --- | --- | --- | --- | --- | --- | --- | --- | --- | --- | --- | --- | --- | --- | --- |
| CC(C)(C)NCC(O)c1cc(Cl)c(N)c(Cl)c1 (centres unmarked) [CLB, Clenbuterol] | no notable disparities in cell viability | 20 µM | extensive fragmentation | disassembled amyloid plaques | prominently reduced | significant inhibitory effects | did not exhibit a performance similar to that of the SHAP-CLB group | ~30 h | 5200 ± 4000 ng·h/mL | 4 h | 4890 ± 3740 ng·h/mL | 120 ± 12.8 ng/mL | 120.19 ng/mL | no apparent accumulation | 5.24 ± 1.81 ng/mL | significant increase | – |
| Hydroxyapatite [HAP] | – | – | – | – | – | – | – | – | – | – | – | – | – | – | – | – | no notable disparities in cell viability |
